Source: ChEMBL document CHEMBL3603785, “Discovery and Optimization of 4-(8-(3-Fluorophenyl)-1,7-naphthyridin-6-yl)transcyclohexanecarboxylic Acid, an Improved PDE4 Inhibitor for the Treatment of Chronic Obstructive Pulmonary Disease (COPD)” (J Med Chem, 2015)
In brackets after ≈: the same amount, converted by molar mass.

What was measured:
[1] = molecular target: 3',5'-cyclic-AMP phosphodiesterase 4D (Homo sapiens, UniProt Q08499); test: Inhibition of human PDE4D
[2] = Thermodynamic aqueous solubility of the compound at pH 6.8; type: physicochemical; conditions: for Therm_solubility: buffer; for solubility thermodynamic: aqueous, read-out: Therm_solubility
[3] = High throughput kinetic solubility of the compound at pH 6.8; type: physicochemical; conditions: buffer, read-out: Kinetic_solubility
Rattus norvegicus [4] = test: AUC in rat at 2.1 uM/kg, po; type: ADME, organism-based; conditions: in vivo
Rattus norvegicus [5] = test: Oral bioavailability in rat at 2.1 uM/kg; type: ADME, organism-based; conditions: in vivo
Rattus norvegicus [6] = test: Volume of distribution at steady state in rat at 1.05 uM/kg, iv; type: ADME, organism-based; conditions: in vivo
Rattus norvegicus [7] = test: Half life in rat at 1.05 uM/kg, iv; type: ADME, organism-based; conditions: in vivo
Rattus norvegicus [8] = test: AUC in rat at 4.2 uM/kg, po; type: ADME, organism-based; conditions: in vivo
Rattus norvegicus [9] = test: AUC in po dosed rat; type: ADME, organism-based; conditions: in vivo
Rattus norvegicus [10] = test: Half life in po dosed rat; type: ADME, organism-based; conditions: in vivo

Sequence of 3',5'-cyclic-AMP phosphodiesterase 4D (Q08499 whole entry): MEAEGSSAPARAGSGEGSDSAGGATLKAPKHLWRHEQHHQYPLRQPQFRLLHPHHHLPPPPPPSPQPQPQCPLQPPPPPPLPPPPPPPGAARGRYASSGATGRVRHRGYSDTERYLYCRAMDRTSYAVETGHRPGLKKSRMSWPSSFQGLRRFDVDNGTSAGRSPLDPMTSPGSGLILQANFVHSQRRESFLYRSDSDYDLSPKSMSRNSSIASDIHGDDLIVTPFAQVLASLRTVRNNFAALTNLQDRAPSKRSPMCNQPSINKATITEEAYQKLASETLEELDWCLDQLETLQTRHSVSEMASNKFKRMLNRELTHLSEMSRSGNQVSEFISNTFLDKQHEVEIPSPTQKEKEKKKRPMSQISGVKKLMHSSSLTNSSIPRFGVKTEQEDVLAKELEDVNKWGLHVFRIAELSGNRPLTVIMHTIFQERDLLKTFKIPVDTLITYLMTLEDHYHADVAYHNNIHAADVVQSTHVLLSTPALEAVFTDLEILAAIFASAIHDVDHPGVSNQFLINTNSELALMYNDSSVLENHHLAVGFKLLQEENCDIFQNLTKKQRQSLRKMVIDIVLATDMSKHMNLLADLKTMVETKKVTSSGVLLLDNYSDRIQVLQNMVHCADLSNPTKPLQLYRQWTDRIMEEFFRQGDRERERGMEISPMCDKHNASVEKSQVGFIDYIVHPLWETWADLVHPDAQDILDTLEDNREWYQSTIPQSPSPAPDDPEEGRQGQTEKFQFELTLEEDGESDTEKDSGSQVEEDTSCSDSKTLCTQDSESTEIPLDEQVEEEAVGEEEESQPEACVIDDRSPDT

Row | Compound | IC50 [1] | solubility kinetic [3] | solubility thermodynamic [2] | other results
1 | N#Cc1cccc(-c2nc(N3CCC(O)CC3)cc3cccnc23)c1 | 22 nM | – | – | –
2 | O=C(O)[C@H]1CC[C@H](c2cc3cccnc3c(-c3cccc(F)c3)n2)CC1 | – | 10 µg/mL (≈ 28.5 µM) | – | Therm_solubility [2]: 0.92 µg/mL; AUC (Rattus norvegicus [4]): 4408 µM/min
3 | N#Cc1cccc(-c2nc(N3CCC(CO)CC3)cc3cccnc23)c1 | 13 nM | – | – | –
4 | N#Cc1cccc(-c2nc(N3CCOCC3)cc3cccnc23)c1 | 3 nM | – | – | –
5 | N#Cc1cccc(-c2nc([C@H]3CC[C@H](C(=O)O)CC3)cc3cccnc23)c1 | – | 20 µg/mL (≈ 56 µM) | – | Therm_solubility [2]: 0.43 µg/mL; AUC (Rattus norvegicus [8]): 112900 µM/min
6 | O=C(O)[C@H]1CC[C@H](c2cc3cccnc3c(-c3cccc(Cl)c3)n2)CC1 | 30 nM | 100 µg/mL (≈ 273 µM) | 0.14 µg/mL (≈ 0.382 µM) | –

The next lines start with results.

Row | IC50 [1] | solubility kinetic [3] | solubility thermodynamic [2] | Compound | other results
7 | – | 20 µg/mL (≈ 55.2 µM) | – | COc1cccc(-c2nc([C@H]3CC[C@H](C(=O)O)CC3)cc3cccnc23)c1 | Therm_solubility [2]: 0.15 µg/mL
8 | – | 20 µg/mL (≈ 55.8 µM) | > 4 µg/mL | N#Cc1cccc(-c2nc(N3CCC(C(=O)O)CC3)cc3cccnc23)c1 | AUC (Rattus norvegicus [4]): 2768 µM/min; F (Rattus norvegicus [5]): 157.5%
9 | 8 nM | – | – | N#Cc1cccc(-c2nc(N3CCC(C(N)=O)CC3)cc3cccnc23)c1 | Vdss (Rattus norvegicus [6]): 2.9 L/kg; t1/2 (Rattus norvegicus [7]): 8 min
10 | – | > 70 µg/mL | > 4 µg/mL | O=C(O)C1CCN(c2cc3cccnc3c(-c3cccc(F)c3)n2)CC1 | AUC (Rattus norvegicus [8]): 3919 µM/min
11 | – | – | 2.3 µg/mL (≈ 6.24 µM) | O=C(O)c1ccc(-c2cc3cccnc3c(-c3ccc4nonc4c3)n2)cc1 | AUC (Rattus norvegicus [9]): 523 µM/min; t1/2 (Rattus norvegicus [10]): 12 min
